Among the data in paper PMC9743095 (Journal of Medicinal Chemistry, 2022) are CC50, Emax and MI% values, retold here.

Assay in all cases: cells
Common to all, as to type: cell-based

In one test the test system is CCRF-CEM. The note with it: Homo sapiens, 72 h; for CC50: read-out: LC50; for Emax: read-out: MI%. How it is done:
(§1) The assay was contracted and carried out by WuXi AppTec (Shanghai) Co., Ltd. The tumor cell lines CCRF-CEM, HL-60, KG-1, MOLT-4, K562, MV4-11, THP-1, HEL92.1.7, NCI-H929, RPMI-8226, Jurkat, Z138, RL, HS445, HepG2, MCF-7, Bx-PC-3, HT29, MIA PaCa-2, and SW620 were seeded at cell densities of […] 10^3 cells/well in a 96-well plate the day before drug incubation. Then, the plates were incubated for 72 h with the different concentrations of compound to be tested. After the incubation period, 50 μL of MTS was added and the tumor cells were incubated for 4 h at 37 °C. The data were read and collected by a Spectra Max 340 absorbance microplate reader. The compounds were tested in duplicate with nine serial concentrations (3.16-fold titrations with 198 μM as the highest concentration), and the data were analyzed by XLfit software.

In a further test the test system is HL-60. To be noted: Homo sapiens, HL-60, 72 h; for CC50: read-out: LC50; for Emax: read-out: MI%. The method, then: as §1
The subject of the next test is HepG2. The note with it: Homo sapiens, HepG2, 72 h; for CC50: read-out: LC50; for Emax: read-out: MI%. How it is done:
as §1

In the next test the test system is K562. To be noted: Homo sapiens, K562, 72 h; for CC50: read-out: LC50; for Emax: read-out: MI%. The method, then: as §1
The next test has as its system KG-1. The note with it: Homo sapiens, KG-1, 72 h, read-out: LC50. How it is done: as §1
The subject of another test is MCF-7. To be noted: Homo sapiens, MCF7, 72 h; for CC50: read-out: LC50; for Emax: read-out: MI%. The method, then: as §1
The next test has as its system MOLT-4. To be noted: Homo sapiens, MOLT-4, 72 h; for CC50: read-out: LC50; for Emax: read-out: MI%. How it is done:
as §1

The test system of another test is BxPC-3. The note with it: for MI%: BxPC-3, maximum inhibitory effect over concentration range; for CC50: Homo sapiens, BXPC-3, 72 h, read-out: LC50. How it is done:
as §1

Another test has as its system HEL92.1.7. The note with it: for MI%: HEL92.1.7, maximum inhibitory effect over concentration range; for CC50: Homo sapiens, HEL 92.1.7, 72 h, read-out: LC50. The method, then: as §1
For the next test, the system named is HS445. To be noted: for MI%: HS445, maximum inhibitory effect over concentration range; for CC50: Homo sapiens, Hs 445, 72 h, read-out: LC50. The method, then:
as §1

In a further test the test system is HT29. The note with it: for MI%: HT29, maximum inhibitory effect over concentration range; for CC50: Homo sapiens, HT-29, 72 h, read-out: lC50. How it is done:
as §1

For the next test, the system named is Jurkat. The note with it: Jurkat; for CC50: Homo sapiens, 72 h, read-out: LC50; for MI%: maximum inhibitory effect over concentration range. How it is done:
as §1

The next test deals with MIA PaCa-2. The note with it: for CC50: Homo sapiens, MIA PaCa-2, 72 h, read-out: LC50; for MI%: MIA PaCa-2, maximum inhibitory effect over concentration range. How it is done:
as §1

The next test has as its system MV4-11. To be noted: for CC50: Homo sapiens, MV4-11, 72 h, read-out: LC50; for MI%: MV4-11, maximum inhibitory effect over concentration range. The method, then: as §1
The test system of another test is NCI-H929. To be noted: for CC50: Homo sapiens, NCI-H929, 72 h, read-out: LC50; for MI%: NCI-H929, maximum inhibitory effect over concentration range. How it is done:
as §1

In another test the test system is RL. The note with it: for CC50: Homo sapiens, 72 h, read-out: LC50; for MI%: maximum inhibitory effect over concentration range. How it is done:
as §1

Another test relates to RPMI-8226. The note with it: for CC50: Homo sapiens, RPMI-8226, 72 h, read-out: LC50; for MI%: RPMI-8226, maximum inhibitory effect over concentration range. How it is done:
as §1

The subject of another test is SW620. The note with it: for CC50: Homo sapiens, SW-620, 72 h, read-out: LC50; for MI%: SW620, maximum inhibitory effect over concentration range. How it is done:
as §1

Another test relates to THP-1. To be noted: for CC50: Homo sapiens, THP-1, 72 h, read-out: LC50; for MI%: THP-1, maximum inhibitory effect over concentration range. How it is done: as §1

On to `C[C@H](NP(=O)(Oc1ccccc1)O[C@@H]1C[C@@H](COP(=O)(N[C@H](C)C(=O)OCc2ccccc2)Oc2ccccc2)O[C@H]1n1cnc2c(N)ncnc21)C(=O)OCc1ccccc1` (some centres unmarked) [Compound 5a], for which the CC50 in the test on CCRF-CEM amounted to 64.8 µM; with HL-60, 143 µM; with HepG2, 85.5 µM; in the test on K562 it was 26.3 µM; in the test on KG-1, 112 µM; in the test with MCF-7, 10.3 µM. In the test on MOLT-4, the CC50 worked out at 62.9 µM. Besides, the Emax stood at 65% with CCRF-CEM; 57% with HL-60; 78% in the test on K562; 97% in the test on MCF-7; 75% with MOLT-4.
As to `C[C@H](NP(=O)(Oc1cccc2ccccc12)O[C@@H]1C[C@@H](COP(=O)(N[C@H](C)C(=O)OCc2ccccc2)Oc2cccc3ccccc23)O[C@H]1n1cnc2c(N)ncnc21)C(=O)OCc1ccccc1` (some centres unmarked) [Compound 5b], the CC50 with CCRF-CEM was determined as 27.1 µM; in the test with HL-60 it was 78.6 µM; in the test on HepG2, 30.2 µM; in the test on K562 it was 25.4 µM; in the test on KG-1, 66.3 µM; with MCF-7 it was 5.05 µM. Moreover, the CC50 with MOLT-4 stood at 14.8 µM. In addition, the Emax came out at 99% in the test on CCRF-CEM; 99% in the test with HL-60; 90% in the test on HepG2; 87% with K562; 99% in the test on MCF-7; 100% in the test on MOLT-4.
For `C[C@H](NP(=O)(Oc1ccccc1)O[C@@H]1C[C@@H](CO)O[C@H]1n1cnc2c(N)ncnc21)C(=O)OCc1ccccc1` (some centres unmarked) [Compound 6a], the CC50 in the test with CCRF-CEM is 17.6 µM; with HL-60, 31.1 µM; in the test with HepG2, 83.1 µM; in the test with K562, 26.9 µM; in the test on KG-1 it was 79.4 µM; in the test with MCF-7, 5.06 µM. The CC50 in the test with MOLT-4 is 18.6 µM. Also, the Emax in the test on CCRF-CEM came out at 99%; in the test with HL-60, 80%; in the test on HepG2 it was 55%; in the test on K562, 89%; in the test on MCF-7 it was 94%; in the test with MOLT-4, 100%.
With `C[C@H](NP(=O)(N[C@@H](C)C(=O)OCc1ccccc1)OC[C@@H]1C[C@@H](O)[C@H](n2cnc3c(N)ncnc32)O1)C(=O)OCc1ccccc1` [Compound 9], the CC50 in the test with CCRF-CEM came out at 7.03 µM; with HL-60, 16.5 µM; with HepG2, 157 µM; in the test with K562 it was 24.3 µM; in the test on KG-1 it was 34.1 µM; in the test on MCF-7, 13 µM. Also, the CC50 in the test with MOLT-4 came out at 3.52 µM. Besides, the Emax in the test with CCRF-CEM came to 100%; in the test with HL-60, 100%; with HepG2, 55%; in the test with K562, 97%; in the test on MCF-7 it was 97%; with MOLT-4 it was 100%.
Consider `C[C@H](N[P@@](=O)(OC[C@@H]1C[C@@H](O)[C@H](n2cnc3c(N)ncnc32)O1)Oc1ccccc1)C(=O)OCc1ccccc1` [Rp-7a], for which the MI% is 71% with BxPC-3; 98% in the test with HEL92.1.7; 99% in the test on HS445; 97% with HT29; 97% with Jurkat; 96% in the test with MIA PaCa-2. For the same compound, the MI% amounted to 100% in the test on MV4-11; 97% in the test on NCI-H929; 96.8% in the test with RL; 90.8% in the test with RPMI-8226; 82% with SW620; 91% in the test with THP-1. The CC50 in the test with BxPC-3 was determined as 74 µM; in the test with CCRF-CEM, 1.86 µM; in the test with HEL92.1.7 it was 11 µM; with HL-60 it was 8.7 µM; in the test on HS445, 42 µM; with HT29, 16 µM. In addition, the CC50 in the test with HepG2 worked out at 32 µM; in the test on Jurkat, 2.82 µM; in the test with K562, 2.6 µM; with KG-1 it was 14 µM; in the test on MCF-7 it was 2.94 µM; in the test with MIA PaCa-2, 14 µM. Moreover, the CC50 is 0.57 µM in the test on MOLT-4; 0.98 µM in the test on MV4-11; 19 µM with NCI-H929; 4 µM in the test on RL; 25 µM in the test with RPMI-8226; 29 µM with SW620. The CC50 in the test with THP-1 stood at 35 µM. The Emax in the test with CCRF-CEM was found to be 97%; in the test with HL-60 it was 100%; in the test with HepG2, 78%; in the test with K562 it was 95%; in the test on MCF-7, 97%; with MOLT-4 it was 98%.
Turning to `C[C@H](N[P@](=O)(OC[C@@H]1C[C@@H](O)[C@H](n2cnc3c(N)ncnc32)O1)Oc1ccccc1)C(=O)OCc1ccccc1` [Sp-7a], the MI% was found to be 73% in the test on BxPC-3; 100% with HEL92.1.7; 75% with HS445; 95% in the test on HT29; 90% with Jurkat; 94% with MIA PaCa-2. Moreover, the MI% in the test with MV4-11 is recorded as 100%; in the test on NCI-H929 it was 94%; with RL, 92.6%; in the test on RPMI-8226, 86.8%; with SW620, 87%; with THP-1, 69%. For the same compound, the CC50 in the test on BxPC-3 is 99 µM; in the test with CCRF-CEM, 2.04 µM; in the test on HEL92.1.7 it was 11 µM; in the test on HL-60 it was 11 µM; in the test on HS445, 67 µM; with HT29, 25 µM. For the same compound, the CC50 in the test on HepG2 turned out to be 57 µM; with Jurkat, 2.29 µM; with K562, 3 µM; with KG-1, 18 µM; in the test with MCF-7, 5.87 µM; with MIA PaCa-2 it was 18 µM. Further, the CC50 in the test on MOLT-4 stood at 0.43 µM; in the test on MV4-11, 1.03 µM; in the test on NCI-H929, 16 µM; with RL, 2.64 µM; in the test on RPMI-8226, 19 µM; in the test with SW620, 35 µM. Also, in the test with THP-1, the CC50 came to 66 µM. Moreover, the Emax with CCRF-CEM stood at 97%; in the test with HL-60, 92%; in the test on HepG2, 73%; in the test with K562 it was 96%; in the test with MCF-7, 94%; in the test with MOLT-4 it was 98%.
